Reference: patent publication US10202361B2, “Pyridazinones as herbicides” (E I DU PONT DE NEMOURS AND COMPANY, priority 2014, dated 2019)

Key:
Format in all cases: in vivo
[1] = test system: velvetleaf (Abutilon theophrasti); test: Test A pre-/postemergence greenhouse herbicide test; conditions: 0 to 100 scale (0 no effect, 100 complete control), approx. 10 d
Excerpt: (§1) Seeds of plant species selected from barnyardgrass (Echinochloa crus-galli), crabgrass, Large (large crabgrass, Digitaria sanguinalis), foxtail, giant (giant foxtail, Setaria faberii), morningglory (Ipomoea spp.), pigweed (Amaranthus retroflexus), velvetleaf (Abutilon theophrasti), wheat (Triticum aestivum), and corn (Zea mays) were planted into a blend of loam soil and sand and treated preemergence with a directed soil spray using test chemicals formulated in a non-phytotoxic solvent mixture which included a surfactant. At the same time these species were also treated with postemergence applications of test chemicals formulated in the same manner.
(§2) Plants ranged in height from 2 to 10 cm and were in the one- to two-leaf stage for the postemergence treatment. Treated plants and untreated controls were maintained in a greenhouse for approximately 10 d, after which time all treated plants were compared to untreated controls and visually evaluated for injury. Plant response ratings, summarized in Table A, are based on a 0 to 100 scale where 0 is no effect and 100 is complete control. A dash (-) response means no test result.

[2] = test system: pigweed (Amaranthus retroflexus); test: as above; conditions: 0 to 100 scale (0 no effect, 100 complete control), approx. 10 d
Excerpt: as §1, §2

[3] = test system: crabgrass, Large (large crabgrass, Digitaria sanguinalis); test: as above; conditions: 0 to 100 scale (0 no effect, 100 complete control), approx. 10 d
Excerpt: as §1, §2

[4] = test system: corn (Zea mays); test: as above; conditions: 0 to 100 scale (0 no effect, 100 complete control), approx. 10 d
Excerpt: as §1, §2

[5] = test system: foxtail, giant (giant foxtail, Setaria faberii); test: as above; conditions: 0 to 100 scale (0 no effect, 100 complete control), approx. 10 d
Excerpt: as §1, §2

[6] = test system: morningglory (Ipomoea spp.); test: as above; conditions: 0 to 100 scale (0 no effect, 100 complete control), approx. 10 d
Excerpt: as §1, §2

[7] = test system: barnyardgrass (Echinochloa crus-galli); test: as above; conditions: 0 to 100 scale (0 no effect, 100 complete control), approx. 10 d
Excerpt: as §1, §2

[8] = test system: wheat (Triticum aestivum); test: as above; conditions: 0 to 100 scale (0 no effect, 100 complete control), approx. 10 d
Excerpt: as §1, §2

[9] = test system: rice (Oryza sativa); test: Test B flooded paddy test; conditions: Flood, scale of 0 to 100, 0 is no effect, 100 is complete control, 13 to 15 d
Description: (§3) Plant species in the flooded paddy test selected from rice (Oryza sativa), small-flower sedge, umbrella (small-flower umbrella sedge, Cyperus difformis), ducksalad (Heteranthera limosa), and barnyardgrass (Echinochloa crus-galli) were grown to the 2-leaf stage for testing. At time of treatment, test pots were flooded to 3 cm above the soil surface, treated by application of test compounds directly to the paddy water, and then maintained at that water depth for the duration of the test. Treated plants and controls were maintained in a greenhouse for 13 to 15 d, after which time all species were compared to controls and visually evaluated. Plant response ratings, summarized in Table B, are based on a scale of 0 to 100 where 0 is no effect and 100 is complete control. A dash (-) response means no test result.

[10] = test system: sedge, umbrella (small-flower umbrella sedge, Cyperus difformis); test: Test B flooded paddy test; conditions: Flood, scale of 0 to 100, 0 is no effect, 100 is complete control, 13 to 15 d
Description: as §3

[11] = test system: ducksalad (Heteranthera limosa); test: Test B flooded paddy test; conditions: Flood, scale of 0 to 100, 0 is no effect, 100 is complete control, 13 to 15 d
Description: as §3

[12] = test system: barnyardgrass (Echinochloa crus-galli); test: Test B flooded paddy test; conditions: Flood, scale of 0 to 100, 0 is no effect, 100 is complete control, 13 to 15 d
Description: as §3

Row | SMILES | Plant response rating, Velvetleaf ([1]; Postemergence, 125 g ai/ha) | Plant response rating, Velvetleaf ([1]; Postemergence, 500 g ai/ha) | Plant response rating, Velvetleaf ([1]; Preemergence, 125 g ai/ha) | Plant response rating, Velvetleaf ([1]; Preemergence, 500 g ai/ha) | Plant response rating, Pigweed ([2]; Postemergence, 125 g ai/ha) | Plant response rating, Pigweed ([2]; Postemergence, 500 g ai/ha) | Plant response rating, Pigweed ([2]; Preemergence, 125 g ai/ha) | Plant response rating, Pigweed ([2]; Preemergence, 500 g ai/ha) | Plant response rating, Crabgrass, Large ([3]; Postemergence, 125 g ai/ha) | Plant response rating, Crabgrass, Large ([3]; Postemergence, 500 g ai/ha) | Plant response rating, Crabgrass, Large ([3]; Preemergence, 125 g ai/ha) | Plant response rating, Crabgrass, Large ([3]; Preemergence, 500 g ai/ha) | Plant response rating, Corn ([4]; Postemergence, 125 g ai/ha) | Plant response rating, Corn ([4]; Postemergence, 500 g ai/ha) | Plant response rating, Corn ([4]; Preemergence, 125 g ai/ha) | Plant response rating, Corn ([4]; Preemergence, 500 g ai/ha) | Plant response rating, Foxtail, Giant ([5]; Postemergence, 125 g ai/ha) | Plant response rating, Foxtail, Giant ([5]; Postemergence, 500 g ai/ha) | Plant response rating, Foxtail, Giant ([5]; Preemergence, 125 g ai/ha) | Plant response rating, Foxtail, Giant ([5]; Preemergence, 500 g ai/ha) | other results
1 | Cc1cc(Oc2cccc(C(F)(F)F)n2)nn(-c2ccc(F)cc2)c1=O [Compound 11] | 0 | 0 | 0 | 0 | 60 | 70 | 0 | 0 | 10 | 20 | 0 | 10 | 0 | 0 | 0 | 0 | 10 | 20 | 0 | 0 | Plant response rating, Morningglory ([6]; Postemergence, 125 g ai/ha): 20; Plant response rating, Morningglory ([6]; Postemergence, 500 g ai/ha): 30; Plant response rating, Morningglory ([6]; Preemergence, 125 g ai/ha): 0; Plant response rating, Morningglory ([6]; Preemergence, 500 g ai/ha): 0; Plant response rating, Barnyardgrass ([7]; Postemergence, 125 g ai/ha): 0; Plant response rating, Barnyardgrass ([7]; Postemergence, 500 g ai/ha): 0; Plant response rating, Wheat ([8]; Postemergence, 125 g ai/ha): 0; Plant response rating, Wheat ([8]; Postemergence, 500 g ai/ha): 0; Plant response rating, Wheat ([8]; Preemergence, 125 g ai/ha): 0; Plant response rating, Wheat ([8]; Preemergence, 500 g ai/ha): 0; Plant response rating, Rice ([9]; 250 g ai/ha): 0; Plant response rating, Sedge, Umbrella ([10]; 250 g ai/ha): 0; Plant response rating, Ducksalad ([11]; 250 g ai/ha): 0; Plant response rating, Barnyardgrass ([12]; 250 g ai/ha): 0
2 | Cc1cc(=O)n(-c2ccc(F)cc2)nc1Oc1cccc(C(F)(F)F)n1 [Compound 12] | 40 | 60 | 30 | 70 | 60 | 90 | 90 | 100 | 20 | 70 | 100 | 100 | 10 | 50 | 0 | 30 | 20 | 80 | 80 | 100 | Plant response rating, Morningglory ([6]; Postemergence, 125 g ai/ha): 50; Plant response rating, Morningglory ([6]; Postemergence, 500 g ai/ha): 90; Plant response rating, Morningglory ([6]; Preemergence, 125 g ai/ha): 0; Plant response rating, Morningglory ([6]; Preemergence, 500 g ai/ha): 50; Plant response rating, Barnyardgrass ([7]; Postemergence, 125 g ai/ha): 40; Plant response rating, Barnyardgrass ([7]; Postemergence, 500 g ai/ha): 70; Plant response rating, Wheat ([8]; Postemergence, 125 g ai/ha): 0; Plant response rating, Wheat ([8]; Postemergence, 500 g ai/ha): 20; Plant response rating, Wheat ([8]; Preemergence, 125 g ai/ha): 0; Plant response rating, Wheat ([8]; Preemergence, 500 g ai/ha): 0; Plant response rating, Rice ([9]; 250 g ai/ha): 20; Plant response rating, Sedge, Umbrella ([10]; 250 g ai/ha): 0; Plant response rating, Ducksalad ([11]; 250 g ai/ha): 0; Plant response rating, Barnyardgrass ([12]; 250 g ai/ha): 20
3 | Cc1cc(Oc2ccnc(C(F)(F)F)c2)nn(-c2ccc(F)cc2)c1=O [Compound 13] | 60 | 70 | 10 | 50 | 90 | 100 | 80 | 90 | 50 | 90 | 100 | 100 | 20 | 50 | 0 | 10 | 50 | 90 | 80 | 100 | Plant response rating, Morningglory ([6]; Postemergence, 125 g ai/ha): 50; Plant response rating, Morningglory ([6]; Postemergence, 500 g ai/ha): 60; Plant response rating, Morningglory ([6]; Preemergence, 125 g ai/ha): 20; Plant response rating, Morningglory ([6]; Preemergence, 500 g ai/ha): 80; Plant response rating, Barnyardgrass ([7]; Postemergence, 125 g ai/ha): 10; Plant response rating, Barnyardgrass ([7]; Postemergence, 500 g ai/ha): 60; Plant response rating, Barnyardgrass ([7]; Preemergence, 125 g ai/ha): 0; Plant response rating, Barnyardgrass ([7]; Preemergence, 500 g ai/ha): 60; Plant response rating, Wheat ([8]; Postemergence, 125 g ai/ha): 0; Plant response rating, Wheat ([8]; Postemergence, 500 g ai/ha): 20; Plant response rating, Wheat ([8]; Preemergence, 125 g ai/ha): 0; Plant response rating, Wheat ([8]; Preemergence, 500 g ai/ha): 10; Plant response rating, Rice ([9]; 250 g ai/ha): 0; Plant response rating, Sedge, Umbrella ([10]; 250 g ai/ha): 65; Plant response rating, Ducksalad ([11]; 250 g ai/ha): 30; Plant response rating, Barnyardgrass ([12]; 250 g ai/ha): 0
4 | Cc1cc(=O)n(-c2ccccc2)nc1Oc1ccnc(C(F)(F)F)c1 [Compound 15] | 70 | 90 | 30 | 70 | 100 | 100 | 100 | 100 | 80 | 90 | 100 | 100 | 40 | 80 | 10 | 20 | 70 | 90 | 100 | 100 | Plant response rating, Morningglory ([6]; Postemergence, 125 g ai/ha): 100; Plant response rating, Morningglory ([6]; Postemergence, 500 g ai/ha): 100; Plant response rating, Morningglory ([6]; Preemergence, 125 g ai/ha): 90; Plant response rating, Morningglory ([6]; Preemergence, 500 g ai/ha): 100; Plant response rating, Barnyardgrass ([7]; Postemergence, 125 g ai/ha): 70; Plant response rating, Barnyardgrass ([7]; Postemergence, 500 g ai/ha): 90; Plant response rating, Barnyardgrass ([7]; Preemergence, 125 g ai/ha): 50; Plant response rating, Barnyardgrass ([7]; Preemergence, 500 g ai/ha): 100; Plant response rating, Wheat ([8]; Postemergence, 125 g ai/ha): 20; Plant response rating, Wheat ([8]; Postemergence, 500 g ai/ha): 60; Plant response rating, Wheat ([8]; Preemergence, 125 g ai/ha): 0; Plant response rating, Wheat ([8]; Preemergence, 500 g ai/ha): 20; Plant response rating, Rice ([9]; 250 g ai/ha): 0; Plant response rating, Sedge, Umbrella ([10]; 250 g ai/ha): 70; Plant response rating, Ducksalad ([11]; 250 g ai/ha): 70; Plant response rating, Barnyardgrass ([12]; 250 g ai/ha): 0
5 | CCOc1cc(=O)n(-c2ccc(C(F)(F)F)cc2)nc1Cc1ccnc(C(F)(F)F)c1 [Compound 18] | 30 | 80 | 40 | 40 | 90 | 100 | 100 | 100 | 60 | 80 | 100 | 100 | 20 | 40 | 10 | 10 | 20 | 50 | 100 | 100 | Plant response rating, Morningglory ([6]; Postemergence, 125 g ai/ha): 30; Plant response rating, Morningglory ([6]; Postemergence, 500 g ai/ha): 70; Plant response rating, Morningglory ([6]; Preemergence, 125 g ai/ha): 30; Plant response rating, Morningglory ([6]; Preemergence, 500 g ai/ha): 30; Plant response rating, Barnyardgrass ([7]; Postemergence, 125 g ai/ha): 30; Plant response rating, Barnyardgrass ([7]; Postemergence, 500 g ai/ha): 40; Plant response rating, Barnyardgrass ([7]; Preemergence, 125 g ai/ha): 60; Plant response rating, Barnyardgrass ([7]; Preemergence, 500 g ai/ha): 90; Plant response rating, Wheat ([8]; Postemergence, 125 g ai/ha): 10; Plant response rating, Wheat ([8]; Postemergence, 500 g ai/ha): 20; Plant response rating, Wheat ([8]; Preemergence, 125 g ai/ha): 0; Plant response rating, Wheat ([8]; Preemergence, 500 g ai/ha): 20; Plant response rating, Rice ([9]; 125 g ai/ha): 0; Plant response rating, Sedge, Umbrella ([10]; 125 g ai/ha): 75; Plant response rating, Ducksalad ([11]; 125 g ai/ha): 0; Plant response rating, Barnyardgrass ([12]; 125 g ai/ha): 0
